Measured values from PubChem BioAssay AID248 (DTP/NCI, 2004).
Where “and” joins values, the source holds several entries; their conditions need not be identical. Equal values may be shown once. Toxic doses and inconclusive results are not listed. No stated cut-off is given here; in the data, active means T/C of 150% or more; inactive means T/C below 125%.

System: L1210 leukemia ip in BDF1 mice, survival T/C
Experiment: NCI In Vivo Anticancer Drug Screen. Data for tumor model L1210 Leukemia (intraperitoneal) in B6D2F1 (BDF1) mice
Conditions: endpoint: mean survival time, higher = longer survival
Summary of the method: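 Tumor was transplanted into mice, which were then dosed with test compound or vehicle alone. Survival was recorded for each group, and the treated figure was expressed relative to the control figure.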

[1] = dose: 50.0 mg/kg/injection, schedule: Q01DX001 (ip), vehicle: saline
[2] = dose: 100.0 mg/kg/injection, schedule: Q01DX001 (ip), vehicle: saline
[3] = dose: 200.0 mg/kg/injection, schedule: Q01DX001 (ip), vehicle: saline
[4] = dose: 400.0 mg/kg/injection, schedule: Q01DX001 (ip), vehicle: saline
[5] = dose: 100.0 mg/kg/injection, schedule: Q04DX003 (ip), vehicle: saline
[6] = dose: 200.0 mg/kg/injection, schedule: Q04DX003 (ip), vehicle: saline
[7] = dose: 400.0 mg/kg/injection, schedule: Q04DX003 (ip), vehicle: saline
[8] = dose: 100.0 mg/kg/injection, schedule: Q01DX001 (ip), vehicle: carboxymethylcellulose (CMC)
[9] = dose: 200.0 mg/kg/injection, schedule: Q01DX001 (ip), vehicle: carboxymethylcellulose (CMC)
[10] = dose: 400.0 mg/kg/injection, schedule: Q01DX001 (ip), vehicle: carboxymethylcellulose (CMC)
[11] = dose: 100.0 mg/kg/injection, schedule: Q01DX009 (ip), vehicle: Klucel (hydroxypropylcellulose) (HPC)
[12] = dose: 200.0 mg/kg/injection, schedule: Q01DX009 (ip), vehicle: Klucel (hydroxypropylcellulose) (HPC)
[13] = dose: 400.0 mg/kg/injection, schedule: Q01DX009 (ip), vehicle: Klucel (hydroxypropylcellulose) (HPC)
[14] = dose: 25.0 mg/kg/injection, schedule: Q01DX009 (ip), vehicle: saline with Tween-80
[15] = dose: 50.0 mg/kg/injection, schedule: Q01DX009 (ip), vehicle: saline with Tween-80
[16] = dose: 100.0 mg/kg/injection, schedule: Q01DX009 (ip), vehicle: saline with Tween-80

Measured: T/C

OCC1(CO)COC2(CCCC2)N1
inactive: [1] 101 % of control | [2] 97 % of control | [3] 95 % of control | [4] 103 % of control

CN(C)c1ccc(/C=C\C=N\NC(=O)CCCC(=O)N/N=C/C=C/c2ccc(N(C)C)cc2)cc1
inactive: [1] 96 % of control | [2] 96 % of control | [3] 96 % of control | [4] 90 % of control

O=C1OC(c2ccc(Cl)cc2)=N/C1=C\c1ccc(Cl)c(Cl)c1
inactive: dose: 100.0 mg/kg/injection, schedule: Q04DX002 (ip), vehicle: saline 106 % of control | dose: 200.0 mg/kg/injection, schedule: Q04DX002 (ip), vehicle: saline 92 % of control | dose: 400.0 mg/kg/injection, schedule: Q04DX002 (ip), vehicle: saline 100 % of control

CC(C)CCCC(C)C1CCC2C3CC(=O)OC45CC4CCC5(C)C3CCC12C (configuration not stated)
inactive: dose: 100.0 mg/kg/injection, schedule: Q01DX001 (ip), vehicle: acetone 94 % of control | dose: 100.0 mg/kg/injection, schedule: Q01DX009 (ip), vehicle: acetone 89 % of control | dose: 200.0 mg/kg/injection, schedule: Q01DX001 (ip), vehicle: acetone 89 % of control | dose: 200.0 mg/kg/injection, schedule: Q01DX009 (ip), vehicle: acetone 91 % of control | dose: 400.0 mg/kg/injection, schedule: Q01DX001 (ip), vehicle: acetone 91 % of control | dose: 400.0 mg/kg/injection, schedule: Q01DX009 (ip), vehicle: acetone 90 % of control

Cc1ccc(Oc2ccc3cc[n+](C)cc3c2)cc1
inactive: dose: 6.25 mg/kg/injection, schedule: Q04DX002 (ip), vehicle: DMSO 94 % of control | dose: 12.5 mg/kg/injection, schedule: Q04DX002 (ip), vehicle: DMSO 105 % of control | dose: 25.0 mg/kg/injection, schedule: Q04DX002 (ip), vehicle: DMSO 102 % of control

CCC(Cl)COP(=O)(OCC(Cl)CC)O/C(C)=C(\C)OP(=S)(OCC(Cl)CC)OCC(Cl)CC (configuration not stated)
inactive: dose: 100.0 mg/kg/injection, schedule: Q04DX002 (sc), vehicle: olive oil, sesame oil, peanut oil 108 % of control | dose: 200.0 mg/kg/injection, schedule: Q04DX002 (sc), vehicle: olive oil, sesame oil, peanut oil 102 % of control | dose: 400.0 mg/kg/injection, schedule: Q04DX002 (sc), vehicle: olive oil, sesame oil, peanut oil 102 % of control

O=S(=O)(Cc1ncc2cnccn12)c1ccccc1
inactive: [5] 95 % of control | [6] 103 % of control | [7] 104 % of control

CCCCCCCCCCCC[N+]1(CCCCCCCCCCCC)CCCC(C)C1 (configuration not stated)
inactive: dose: 3.0 mg/kg/injection, schedule: Q04DX002 (ip), vehicle: Klucel (hydroxypropylcellulose) (HPC) 109 % of control | dose: 6.0 mg/kg/injection, schedule: Q04DX002 (ip), vehicle: Klucel (hydroxypropylcellulose) (HPC) 87 % of control

NC1(C(=O)O)CC2CC1C2 (configuration not stated)
inactive: dose: 100.0 mg/kg/injection, schedule: Q04DX002 (ip), vehicle: other 95 % of control | dose: 200.0 mg/kg/injection, schedule: Q04DX002 (ip), vehicle: other 106 % of control | dose: 400.0 mg/kg/injection, schedule: Q04DX002 (ip), vehicle: other 92 % of control

O=C(CC(O)(C(F)(F)F)C(F)(F)F)c1ccc(C(=O)CC(O)(C(F)(F)F)C(F)(F)F)cc1
inactive: dose: 50.0 mg/kg/injection, schedule: Q01DX009 (ip), vehicle: other 108 % of control | dose: 100.0 mg/kg/injection, schedule: Q01DX009 (ip), vehicle: other 97 % of control

COC1OCC2OC(C)(C)OC2C1OS(=O)(=O)c1ccc([N+](=O)[O-])cc1 (configuration not stated)
inactive: [8] 95 % of control | [9] 95 % of control | [10] 101 % of control

CC(=O)c1cccc(NC(=O)CCCCCCCCC(=O)Nc2cccc(C(C)=O)c2)c1
inactive: [11] 96 % of control | [12] 91 % of control | [13] 94 % of control

Cc1ccc(Cl)cc1NC(=S)Nc1ccccc1
inactive: dose: 100.0 mg/kg/injection, schedule: Q04DX002 (ip), vehicle: Klucel (hydroxypropylcellulose) (HPC) 100 % of control | dose: 200.0 mg/kg/injection, schedule: Q04DX002 (ip), vehicle: Klucel (hydroxypropylcellulose) (HPC) 103 % of control | dose: 400.0 mg/kg/injection, schedule: Q04DX002 (ip), vehicle: Klucel (hydroxypropylcellulose) (HPC) 106 % of control

c1ccc(SCN2CCN(CSc3ccccc3)CC2)cc1
inactive: [5] 101 % of control | [6] 101 % of control | [7] 98 % of control

OB(Cc1ccccc1)c1ccccc1
inactive: [2] 97 % of control | [3] 89 % of control | [4] 97 % of control

CCC1(CCCCCCC(=O)CC(C)=O)OCCO1
inactive: [11] 105 % of control | [12] 104 % of control | [13] 91 % of control

COc1ccc(S(=O)(=O)Nc2cc([N+](=O)[O-])ccc2C)cc1
inactive: [11] 100 % of control | [12] 100 % of control | [13] 98 % of control

CN(C)/C=N\c1c(C#N)c(CC#N)nn1-c1ccccc1
inactive: [14] 98 % of control | dose: 25.0 mg/kg/injection, schedule: Q04DX003 (ip), vehicle: saline with Tween-80 103 % of control | [15] 100 % of control | dose: 50.0 mg/kg/injection, schedule: Q04DX003 (ip), vehicle: saline with Tween-80 93 % of control | [16] 88 % of control | dose: 100.0 mg/kg/injection, schedule: Q04DX003 (ip), vehicle: saline with Tween-80 98 % of control and 99 % of control

C=CCCCCCCCCC(=O)NCCCN1CCOCC1
inactive: [15] 103 % of control | [16] 103 % of control

O=C(NCCCc1ccc(S(=O)(=O)F)cc1)Oc1ccc([N+](=O)[O-])cc1
inactive: [14] 102 % of control | [15] 100 % of control | [16] 93 % of control and 86 % of control

BrC1C2CCC(CC2)C1Br (configuration not stated)
inactive: [11] 92 % of control | dose: 100.0 mg/kg/injection, schedule: Q04DX003 (ip), vehicle: Klucel (hydroxypropylcellulose) (HPC) 100 % of control | [12] 92 % of control | dose: 200.0 mg/kg/injection, schedule: Q04DX003 (ip), vehicle: Klucel (hydroxypropylcellulose) (HPC) 100 % of control | [13] 94 % of control | dose: 400.0 mg/kg/injection, schedule: Q04DX003 (ip), vehicle: Klucel (hydroxypropylcellulose) (HPC) 96 % of control

O=[N+]([O-])c1ccc(OCCOCCBr)c(Cl)c1
inactive: [8] 98 % of control and 101 % of control | dose: 100.0 mg/kg/injection, schedule: Q01DX009 (ip), vehicle: carboxymethylcellulose (CMC) 101 % of control and 110 % of control | dose: 100.0 mg/kg/injection, schedule: Q04DX003 (ip), vehicle: carboxymethylcellulose (CMC) 100 % of control and 103 % of control | [9] 98 % of control and 90 % of control | dose: 200.0 mg/kg/injection, schedule: Q01DX009 (ip), vehicle: carboxymethylcellulose (CMC) 95 % of control and 97 % of control | dose: 200.0 mg/kg/injection, schedule: Q04DX003 (ip), vehicle: carboxymethylcellulose (CMC) 100 % of control and 106 % of control | [10] 97 % of control and 101 % of control | dose: 400.0 mg/kg/injection, schedule: Q01DX009 (ip), vehicle: carboxymethylcellulose (CMC) 95 % of control and 101 % of control | dose: 400.0 mg/kg/injection, schedule: Q04DX003 (ip), vehicle: carboxymethylcellulose (CMC) 94 % of control

C/C=C\C(=O)OCC(C)CCC (configuration not stated)
inactive: dose: 100.0 mg/kg/injection, schedule: Q04DX002 (ip), vehicle: saline with Tween-80 97 % of control | dose: 200.0 mg/kg/injection, schedule: Q04DX002 (ip), vehicle: saline with Tween-80 102 % of control
